From PubChem BioAssay (NCI)
Several values for one entry are separate records, joined by “and”; a condition that tells them apart may be missing. Equal values may be shown once.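 Following 48 hours of exposure in 96-well plates, responses at five concentrations were used to interpolate endpoints linearly. GI50 = concentration required for 50% inhibition of growth. TGI marks complete inhibition of growth.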

How the values were obtained:
Assay in all cases: DTP human tumour cell line panel, 48 h
[1] = test system: SR leukemia
[2] = test system: SNB-19 CNS
[3] = test system: HOP-62 NSCLC
[4] = test system: SW-620 colon
[5] = test system: EKVX NSCLC
[6] = test system: HT29 colon
[7] = test system: SK-OV-3 ovarian
[8] = test system: K-562 leukemia
[9] = test system: UACC-257 melanoma
[10] = test system: CCRF-CEM leukemia

Compound	TGI [1]	TGI [2]	TGI [3]	TGI [4]	TGI [5]	TGI [6]	TGI [7]	TGI [8]	TGI [9]	TGI [10]	GI50 [1]
C=Cc1ccc(C)[n+](C[Si](C)(C)O[Si](C)(C)C[n+]2cc(C=C)ccc2C)c1	> 100 µM	> 100 µM	> 100 µM	> 100 µM	> 100 µM	> 100 µM	> 100 µM	> 100 µM	> 100 µM	> 100 µM	
O=c1[nH]cnc(NC2C=C(CO)C(O)C2O)c1[N+](=O)[O-] (stereo unspecified)	> 100 µM	> 100 µM	> 100 µM	> 62 µM	> 100 µM	> 100 µM	> 100 µM	> 100 µM	> 100 µM	> 100 µM	
COc1nc2ncc([C@@H](OC(C)=O)[C@@H](COC(C)=O)OC(C)=O)nc2c(=O)[nH]1	> 100 µM	> 100 µM	> 100 µM	> 100 µM	> 100 µM	> 100 µM	> 100 µM	> 100 µM	> 100 µM	> 100 µM	> 100 µM and 39.4 µM
COC(=O)c1cc2c(cc1CC1Cc3cc4c(cc3C1)CCC4)CCC2	47.2 µM	> 100 µM	> 100 µM	> 100 µM	> 100 µM	> 100 µM	> 100 µM	> 100 µM	80.9 µM	45.3 µM	
